# In article PMC3397457, “Preclinical Evaluation of Anticancer Efficacy and Pharmacological Properties of FBA-TPQ, a Novel Synthetic Makaluvamine Analog” (Marine Drugs, 2012):
# System: Panc-1 xenograft tumors
# Test: Panc-1 xenograft model in nude mice
# Type: in vivo
# Conditions: for inhibition of tumor growth: 5 days/week, vs control group
# Method: Since it exerted potent effects in vitro, we determined whether FBA-TPQ could also show anti-tumor effects in vivo. Nude mice bearing Panc-1 xenograft tumors were treated with vehicle or FBA-TPQ at 5 or 10 mg/kg/day, 5 days per week.
# Figure 3 In vivo effects of FBA-TPQ administered to nude mice bearing Panc-1 xenograft tumors. (a) FBA-TPQ was administered by intraperitoneal (ip) injection at doses of 5 mg/kg/day, 5 days/week for 3 weeks and 10 mg/kg/day, 5 days/week for 2 weeks, tumors were measured […]; (b) At the end of the experiment, representative tumors were removed and photographed; (c) Animals were also monitored for changes in body weight as a surrogate marker for toxicity.
# The animal use and care protocol was approved by the Institutional Animal Use and Care Committee of Texas Tech University Health Sciences Center. Female athymic pathogen-free nude mice (nu/nu, 4–6 weeks) were purchased from the Charles River Laboratories International. Inc. (Wilmington, MA, USA). To establish Panc-1 human pancreatic cancer xenograft tumors, cultured Panc-1 cells were harvested from monolayer cultures, washed twice with serum-free medium, re-suspended and injected sc (5 × 10^6 cells, total volume 0.2 mL) into the left inguinal area of the mice. All animals were monitored for activity, physical condition, body weight, and tumor growth. Tumor size was determined every other day by caliper measurement of two perpendicular diameters of the implant. Tumor mass (in g) was calculated by the formula, 1/2a × b^2 where “a” is the long diameter and “b” is the short diameter (in cm).
# The animals bearing human cancer xenografts were randomly divided into various treatment groups and a control group (7–10 mice/group). The untreated control group received the vehicle only. For the Panc-1 xenograft model, FBA-TPQ was dissolved in PEG400: ethanol: saline (57.1: 14.3: 28.6, v/v/v),and was administered by intraperitoneal (ip) injection at doses of 5 and 10 mg/kg/d, 5 d/wk for 3 weeks.
smiles,measurement,setting,value
"O=C1C(NCc2ccc(F)cc2)=CC2=NCCc3c[nH]c1c32 [FBA-TPQ, 7-(4-fluorobenzylamino)-1,3,4,8-tetrahydropyrrolo[4,3,2-de]quinolin-8(1H)-one]",inhibition of tumor growth,5 mg/kg/day ip,77.8%
same,inhibition of tumor growth,10 mg/kg/day ip,90.1%
same,host toxicity (body weight as surrogate marker),5 and 10 mg/kg/day ip,No significant host toxicity
same,tumor regression/remission,both treated groups (5 and 10 mg/kg/day ip),significant tumor regression or complete remission
